{"source": "the NIST ThermoML archive (doi:10.1016/j.fluid.2013.05.019)", "key": {"[1]": {"assay": "Boiling temperature at pressure P", "conditions": "101 kPa; Liquid; Ebulliometric method (Recirculating still)"}, "[2]": {"conditions": "Liquid, Manometric method"}}, "note": "± gives the expanded uncertainty stated by the source.", "data": [{"smiles": "C=C(C)C(C)C", "note": "[2,3-dimethyl-1-butene]", "values": [{"measurement": "Boiling temperature at pressure P", "setting": "[1]", "value": "55.73 ± 0.04", "unit": "°C"}]}, {"smiles": "CC(C)=C(C)C", "note": "[2,3-dimethyl-2-butene]", "values": [{"measurement": "Boiling temperature at pressure P", "setting": "[1]", "value": "73.00 ± 0.04", "unit": "°C"}]}, {"smiles": "Cc1ccsc1", "note": "[3-methylthiophene]", "values": [{"measurement": "Boiling temperature at pressure P", "setting": "[1]", "value": "115.20 ± 0.04", "unit": "°C"}]}, {"smiles": "CCCCCCC", "note": "[heptane]", "values": [{"measurement": "vapor or sublimation pressure", "setting": "[2]; 370.27 K", "value": "97.43 ± 0.32", "unit": "kPa"}, {"measurement": "vapor or sublimation pressure", "setting": "[2]; 370.74 K", "value": "98.52 ± 0.33", "unit": "kPa"}, {"measurement": "vapor or sublimation pressure", "setting": "[2]; 370.93 K", "value": "99.39 ± 0.34", "unit": "kPa"}, {"measurement": "vapor or sublimation pressure", "setting": "[2]; 371.13 K", "value": "99.78 ± 0.33", "unit": "kPa"}, {"measurement": "vapor or sublimation pressure", "setting": "[2]; 371.52 K", "value": "101.07 ± 0.34", "unit": "kPa"}, {"measurement": "vapor or sublimation pressure", "setting": "[2]; 372.25 K", "value": "103.43 ± 0.32", "unit": "kPa"}, {"measurement": "vapor or sublimation pressure", "setting": "[2]; 372.36 K", "value": "103.56 ± 0.35", "unit": "kPa"}, {"measurement": "vapor or sublimation pressure", "setting": "[2]; 372.56 K", "value": "104.41 ± 0.34", "unit": "kPa"}, {"measurement": "vapor or sublimation pressure", "setting": "[2]; 372.76 K", "value": "104.67 ± 0.35", "unit": "kPa"}, {"measurement": "vapor or sublimation pressure", "setting": "[2]; 372.97 K", "value": "105.83 ± 0.36", "unit": "kPa"}, {"measurement": "vapor or sublimation pressure", "setting": "[2]; 373.17 K", "value": "106.29 ± 0.34", "unit": "kPa"}, {"measurement": "vapor or sublimation pressure", "setting": "[2]; 373.48 K", "value": "107.02 ± 0.34", "unit": "kPa"}, {"measurement": "Boiling temperature at pressure P", "setting": "[1]", "value": "98.49 ± 0.04", "unit": "°C"}]}, {"smiles": "c1ccsc1", "note": "[thiophene]", "values": [{"measurement": "Boiling temperature at pressure P", "setting": "[1]", "value": "84.27 ± 0.04", "unit": "°C"}]}]}
